Test [1] has as its system cortical cells, inferior olivary cells and thalamic reticular cells. To be noted: cited from earlier work.
For test [2], the system named is H-reflex (hyper-reflexia) in spinally transected rats. In words: H-reflex frequency-dependent depression in spinally transected rats. Type of test: in vivo, rat. The following applies: no exercise, 3 mg/Kg/day modafinil p.o. for 30 days, measured 30 days after transection, compared with Tx-30, MBET 30 and control. Here is the method:
Adult female Sprague-Dawley rats (Harlan, 200-250 g, n=40) underwent a lower thoracic laminectomy under ketamine (60 mg/kg, i.m.) and xylazine (10 mg/kg, i.m.) anesthesia. A complete transection (Tx) of the spinal cord was made by aspiration and the transected ends of the cord retracted, producing a 2-3 mm cavity. Gelfoam was inserted into the cavity to facilitate hemostasis and the dura was closed over the Tx site. Muscle and skin were sutured in separate layers, and animals were provided with dextrose-saline (5%, 1 ml/100 g body weight, s.c.) to replace fluid lost during the surgical procedure. […] Animals were monitored for signs of urinary tract infection, and treatment with Baytril (enroflaxin 0.2 mg/day, i.m. for 10 days) was instituted as needed. […]
Stimulation of the tibial nerve under the calcaneal tendon produced two responses, an early M-wave (2 ms latency), produced by direct activation of motoneuronal axons in the tibial nerve, and a later H-reflex (8 ms latency), produced by activation of muscle afferents in the tibial nerve, which synapse monosynaptically on plantar motoneurons. The degree of stimulation that induced frequency-dependent depression of the H-reflex was determined. […] The change in the response at various frequencies was calculated as the percent of the response at 0.2 Hz in order to determine depression of the H-reflex as a function of stimulation frequency. […]

Entries after “also recorded” stand apart in the source; their conditions may differ.

Consider `NC(=O)C[S+]([O-])C(c1ccccc1)c1ccccc1` (centres unmarked) [modafinil], for which the electrical coupling result in test [1] is listed as “increases electrical coupling”. For the same compound, in test [2], the “H-reflex amplitude at stimulation frequencies from 0.2 to 10 Hz (habituation / hyper-reflexia)” value is reported as “as effective as passive exercise in normalizing exaggerated reflexes; also recorded: decreased (normalized) the H-reflex amplitude to the same extent as 30 days of exercise; also recorded: the reflexes were normalized; also recorded: effective in reducing hyper-reflexia after spinal transection”.

Values taken from US9289403B2, “Use of modafinil to treat spasticity” (The Board of Trustees of the University of Arizona, priority 2007, dated 2016).
